The test system of assay [1] is Mycobacterium tuberculosis. Description: Antimicrobial activity against Mycobacterium tuberculosis H37Rv at < 6.25 ug/ml. In kind it is functional.
The subject of assay [2] is Mycobacterium tuberculosis. As to the kind of experiment: Antimicrobial activity against Mycobacterium tuberculosis H37Rv. It is filed as functional.

The source of these data is ChEMBL document CHEMBL3045226, “Synthesis and anti-tubercular evaluation of some novel pyrazolo[3,4-d]pyrimidine derivatives” (2012).

A value given as a limit tells only on which side of the number the result lay.

Consider `CC1=NN(c2ccc3c(c2)Nc2ccccc2S3)C2N=C(S)NC(c3ccc(Cl)cc3)C12` (stereo unspecified), for which the “inhibition (INH)” value in assay [1] amounted to 74%. This compound registered an MIC in assay [2] greater than 6.25 µg/mL.
For `CC1=NN(c2ccc3c(c2)Nc2ccccc2S3)C2N=C(S)NC(c3ccc(O)cc3)C12` (stereo unspecified), in that order: 68% and greater than 6.25 µg/mL.
For `CC1=NN(c2ccc3c(c2)Nc2ccccc2S3)C2N=C(S)NC(c3ccc([N+](=O)[O-])cc3)C12` (stereo unspecified), in that order: 54% and greater than 6.25 µg/mL.
On to `CC1=NN(c2ccc3c(c2)Nc2ccccc2S3)C2N=C(S)NC(c3ccccc3Cl)C12` (stereo unspecified), for which the “inhibition (INH)” value in assay [1] was found to be 91%. In assay [2], this compound came in with an MIC of less than 6.25 µg/mL.
For `CC1=NN(c2ccc3c(c2)Nc2ccccc2S3)C2N=C(S)NC(c3ccccc3O)C12` (stereo unspecified), in that order: 93% and less than 6.25 µg/mL.
Turning to `COc1ccc(C2NC(S)=NC3C2C(C)=NN3c2ccc3c(c2)Nc2ccccc2S3)cc1` (stereo unspecified), the “inhibition (INH)” value in assay [1] is on record as 63%. The same compound came in with an MIC in assay [2] greater than 6.25 µg/mL.
For `CC1=NN(c2ccc3c(c2)Nc2ccccc2S3)C2N=C(S)NC(c3ccccc3[N+](=O)[O-])C12` (stereo unspecified), in that order: 96% and less than 6.25 µg/mL.
The corresponding values for `CC1=NN(c2ccc3c(c2)Nc2ccccc2S3)C2N=C(S)NC(c3ccccc3)C12` (stereo unspecified) are 75% and greater than 6.25 µg/mL.
